Source: ChEMBL document CHEMBL5625230, “The recent developments of camptothecin and its derivatives as potential anti-tumor agents” (Eur J Med Chem, 2023)

Legend:
[1] = Antitumor activity against mouse RM1 cells xenografted in C57BL/6 mouse assessed as tumor growth inhibition at 9 mg/kg, ip administered every other day for 3 times and measured on day 7 relative to control; type: functional; settings: RM1, 168 h, time 7 day, read-out: TGI
[2] = Anticancer activity against human KBV cells assessed as reduction in cell growth measured after 72 hrs by SRB assay; type: functional, cell-based
[3] = system: A549; experiment: Antitumor activity against human A549 cells assessed as reduction in cell viability incubated for 72 hrs by CCK-8 assay; type: functional, cell-based; settings: A549, 72 h
[4] = system: PC-3M; experiment: Cytotoxicity against human PC-3M cells assessed as reduction in cell viability measured after 72 hrs by MTS assay; type: functional, cell-based
[5] = Cytotoxicity against Sf9 cells assessed as inhibition of cell growth measured after 24 hrs by MTT assay; type: toxicity, cell-based; settings: Spodoptera frugiperda
[6] = system: A549; experiment: Antiproliferative activity against human A549 cells assessed as inhibition of cell viability measured after 72 hrs by CCK-8 assay; type: functional, cell-based; settings: A549, 72 h
[7] = system: HL-60; experiment: Antiproliferative activity against human HL-60 cells assessed as reduction in cell viability incubated for 48 hrs by MTT assay; type: functional, cell-based; settings: HL-60, 48 h
[8] = system: HT-29; experiment: Antiproliferative activity against human HT-29 cells assessed as reduction in cell viability incubated for 72 hrs by MTT assay; type: functional, cell-based; settings: HT-29, 72 h
[9] = system: HepG2; experiment: Antiproliferative activity against human HepG2 cells assessed as reduction in cell viability incubated for 72 hrs by MTT assay; type: functional, cell-based; settings: HepG2, 72 h

## CC[C@@]1(OC(=O)CCC(=O)O[C@@H]2O[C@@H](C)[C@H](OC(C)=O)[C@@H](OC(C)=O)[C@H]2OC(C)=O)C(=O)OCc2c1cc1n(c2=O)Cc2cc3cc4c(cc3nc2-1)OCO4
[1]
  inhibition in vivo at 9 mg/kg: 44.9%

## CC[C@@]1(O)C(=O)OCc2c1cc1n(c2=O)Cc2c-1nc1ccccc1c2CN1CCN(C(=S)Nc2cccc3ccccc23)CC1
[2]
  IC50: 275 µM

## CC[C@@]1(O)C(=O)OCc2c1cc1n(c2=O)Cc2c-1nc1ccccc1c2CN1CCN(C(=S)Nc2ccccc2OC)CC1
[2]
  IC50: 514 µM

## CC[C@@]1(OC(=O)[C@@H](Cc2ccccc2)NC(=O)OC(C)(C)C)C(=O)OCc2c1cc1n(c2=O)Cc2cc3ccccc3nc2-1
[3]
  IC50: 0.018 µM
[4]
  IC50: 0.088 µM

## CCCCCNC(=O)c1c2c(nc3ccccc13)-c1cc3c(c(=O)n1C2)COC(=O)[C@]3(O)CC
[5]
  IC50 at 24 h: 2.01 µM

## CC[C@]1(O)c2cc3n(c(=O)c2CO[C@H]1F)Cc1cc2c4c(ccc2nc1-3)OCN(C1CCC1)C4
[6]
  IC50: 0.63 µM

## CC[C@]1(O)c2cc3n(c(=O)c2CO[C@H]1F)Cc1cc2c4c(ccc2nc1-3)OCN(C1CCCCC1)C4
[6]
  IC50: 0.63 µM

## CC[C@@]1(OCc2cn([C@@H]3c4cc5c(cc4[C@@H](c4cc(OC)c(O)c(OC)c4)[C@H]4C(=O)OC[C@@H]43)OCO5)nn2)C(=O)OCc2c1cc1n(c2=O)Cc2cc3ccccc3nc2-1
[7]
  IC50: 17.7 µM

## CC[C@]1(O)c2cc3n(c(=O)c2CO[C@H]1F)Cc1cc2c4c(ccc2nc1-3)OCN(C1CC1)C4
[6]
  IC50: 0.63 µM

## CC[C@@]1(O)C(=O)OCc2c1cc1n(c2=O)Cc2c-1nc1ccccc1c2C(=O)NCc1ccccc1
[5]
  IC50 at 24 h: 2.01 µM

## CC[C@]1(O)c2cc3n(c(=O)c2CO[C@H]1F)Cc1cc2c4c(ccc2nc1-3)OCN(C1CCCC1)C4
[6]
  IC50: 0.63 µM

## CC[C@@]1(O)C(=O)OCc2c1cc1n(c2=O)Cc2c-1nc1ccccc1c2C(=O)NCc1ccc(F)cc1
[5]
  IC50 at 24 h: 2.01 µM

## CCCCCCCCCCCCCCCCOC(=O)[C@@]1(C)CCc2c(C)c(OC(=O)CCC(=O)O[C@]3(CC)C(=O)OCc4c3cc3n(c4=O)Cc4c-3nc3ccc(O)cc3c4CC)c(C)c(C)c2O1
[8]
  IC50: 0.0451 µM
[9]
  IC50: 0.165 µM
